Results: the supplement of paper PMC10307832

How the values were obtained:
Assay in all cases: relative viability (nuclei count vs DMSO), 5 days (fraction); higher = more cells survive
Cabozantinib + Dasatinib = compound: COc1cc2nccc(Oc3ccc(NC(=O)C4(C(=O)Nc5ccc(F)cc5)CC4)cc3)c2cc1OC [Cabozantinib] + Cc1nc(Nc2ncc(C(=O)Nc3c(C)cccc3Cl)s2)cc(N2CCN(CCO)CC2)n1 [Dasatinib] (partner 0.075 µM)
Method in brief: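 Lung cancer cell lines were pin-tool dosed in 1536-well plates on the day after seeding, with either a lone drug or a fixed anchor-drug dose plus five library-drug doses (not always all listed) in √10 steps. Nuclei were counted on 4× images after 5 days. Relative viability is the ratio of treated-well to vehicle-well nuclei counts, with each value a median of duplicate plates.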

Cabozantinib = compound: COc1cc2nccc(Oc3ccc(NC(=O)C4(C(=O)Nc5ccc(F)cc5)CC4)cc3)c2cc1OC [Cabozantinib]
Method in brief: (§1)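 Viability was defined as treated-well nuclei divided by vehicle-well nuclei, with the median taken over replicate plates. Cells from lung cancer lines sat overnight at 37 °C in 1536-well plates, received five √10-spaced library-drug doses by pinning on vehicle-anchored plates, and grew 5 days without medium change before one-step fixation, permeabilisation and Hoechst staining, 4× imaging and MetaXpress nuclear counts. Only plates with control CV under 25% and at least one doubling were kept.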

Zosuquidar = compound: O[C@@H](COc1cccc2ncccc12)CN1CCN([C@@H]2c3ccccc3[C@@H]3[C@H](c4ccccc42)C3(F)F)CC1 [Zosuquidar]
Method in brief: as §1

Kobe2602 = compound: C1=CC(=CC=C1NC(=S)NNC2=C(C=C(C=C2[N+](=O)[O-])C(F)(F)F)[N+](=O)[O-])F [Kobe2602]
Method in brief: as §1

Cell Line | relative viability (Cabozantinib + Dasatinib; first compound 0.02 µM) | relative viability (Cabozantinib + Dasatinib; first compound 0.06325 µM) | relative viability (Cabozantinib + Dasatinib; first compound 0.2 µM) | relative viability (Cabozantinib + Dasatinib; first compound 0.6325 µM) | relative viability (Cabozantinib + Dasatinib; first compound 2 µM) | relative viability (Cabozantinib; 0.02 µM) | relative viability (Cabozantinib; 0.06325 µM) | relative viability (Cabozantinib; 0.2 µM) | relative viability (Cabozantinib; 0.6325 µM) | relative viability (Cabozantinib; 2 µM) | relative viability (Zosuquidar; 0.01 µM) | relative viability (Zosuquidar; 0.03162 µM) | relative viability (Zosuquidar; 0.1 µM) | relative viability (Zosuquidar; 0.3162 µM) | relative viability (Zosuquidar; 1 µM) | relative viability (Kobe2602; 0.2 µM) | relative viability (Kobe2602; 0.6325 µM) | relative viability (Kobe2602; 2 µM) | relative viability (Kobe2602; 6.325 µM) | relative viability (Kobe2602; 20 µM)
NCI-H2009 | 0.289 | 0.298 | 0.267 | 0.217 | 0.201 | 1.08 | 1.06 | 1.08 | 1.07 | 1.15 | 1.02 | 0.945 | 0.929 | 1.06 | 0.971 | 1.02 | 1.08 | 0.966 | 1.04 | 0.99
NCI-H2023 | 0.45 | 0.531 | 0.369 | 0.311 | 0.248 | 0.93 | 0.998 | 0.803 | 0.78 | 0.593 | 0.949 | 1.03 | 0.894 | 1.1 | 1.05 | 0.941 | 1.02 | 0.984 | 0.924 | 0.663
NCI-H2085 | 0.285 | 0.268 | 0.244 | 0.218 | 0.216 | 1.07 | 1.09 | 0.942 | 1.05 | 1.01 | 0.977 | 0.955 | 0.797 | 1 | 0.959 | 1.02 | 0.994 | 0.959 | 0.991 | 0.96
NCI-H2087 | 0.694 | 0.957 | 0.823 | 0.78 | 0.557 | 1.09 | 1.16 | 1.03 | 0.922 | 1.02 | 1.06 | 0.971 | 0.907 | 1.19 | 1.07 | 1.02 | 1.08 | 0.995 | 1.08 | 1.13
NCI-H2126 | 0.497 | 0.625 | 0.624 | 0.634 | 0.573 | 0.747 | 1.05 | 0.991 | 0.99 | 1.11 | 0.96 | 0.996 | 0.741 | 1.03 | 1.03 | 1.01 | 1.02 | 0.975 | 0.971 | 0.961
NCI-H2170 | 0.622 | 0.57 | 0.373 | 0.542 | 0.591 | 0.991 | 1 | 0.864 | 1.02 | 1.04 | 0.989 | 1 | 0.932 | 0.971 | 0.954 | 1.03 | 0.958 | 0.974 | 0.992 | 0.871
NCI-H2228 | 0.531 | 0.624 | 0.471 | 0.472 | 0.55 | 1.05 | 1.11 | 0.938 | 0.879 | 0.871 | 0.901 | 0.979 | 1.02 | 0.952 | 1.03 | 1.02 | 1.11 | 1.01 | 0.944 | 1.11
NCI-H2342 | 0.291 | 0.386 | 0.308 | 0.316 | 0.311 | 0.909 | 1.02 | 0.866 | 0.952 | 0.888 | 0.876 | 0.964 | 0.758 | 1.11 | 1 | 1.03 | 1.06 | 0.92 | 0.946 | 1.12
NCI-H2347 | 0.3 | 0.283 | 0.321 |  | 0.296 | 1.15 | 1.14 | 1.06 | 0.886 | 0.961 | 1 | 1.05 | 0.854 | 1.11 | 0.991 | 1.04 | 1.02 | 1.01 | 1.06 | 1.07
NCI-H2405 | 0.171 | 0.232 | 0.215 | 0.212 | 0.215 | 0.807 | 1.11 | 1.09 | 1.01 | 1.08 | 1.1 | 0.942 | 0.981 | 1.03 | 0.93 | 1.04 | 1.09 | 0.964 | 1.09 | 1.14
NCI-H3122 | 0.714 | 0.941 | 0.836 | 0.78 | 0.83 | 0.995 | 1.05 | 1.03 | 0.983 | 0.998 | 0.984 | 0.952 | 0.919 | 1.07 | 0.987 | 1.01 | 0.971 | 1.01 | 0.985 | 1.04
PC-3 [JPC-3] | 0.89 | 1.21 |  | 1.1 | 0.993 | 1.03 | 1.21 |  | 1.03 | 1.09 | 1.06 | 0.992 | 0.883 | 0.972 | 1.01 | 1.07 | 1.09 | 1.01 | 1.01 | 0.954
PC-14 | 0.219 | 0.339 | 0.0309 | 0.246 | 0.195 | 1.01 | 1.14 |  | 0.996 | 0.99 | 0.988 | 0.981 | 0.953 | 1.11 | 0.954 | 0.993 | 1.05 | 0.989 | 1.04 | 0.952
RERF-LC-KJ | 0.84 | 0.77 | 0.763 | 0.853 | 0.923 | 1.02 | 1.1 | 0.935 | 0.996 | 0.994 | 0.943 | 1.03 | 1.03 | 1.04 | 0.971 | 0.981 | 0.943 | 0.959 | 0.9 | 0.906
SK-LU-1 | 0.138 | 0.164 | 0.174 | 0.155 | 0.156 | 0.97 | 1.24 | 1.08 | 0.926 | 0.942 | 1.1 | 1.02 | 0.962 | 1.11 | 1.07 | 1 | 1.13 | 0.937 | 1.04 | 1.1
SK-MES-1 | 0.335 | 0.518 | 0.293 | 0.432 | 0.242 | 0.981 | 1.14 | 0.986 | 1.03 | 0.953 | 0.998 | 0.993 | 0.912 | 1.02 | 1.04 | 0.96 | 1.05 | 0.964 | 0.97 | 0.855
SW 900 | 0.541 | 0.373 | 0.541 | 0.404 | 0.23 | 0.807 | 1.14 | 0.815 | 0.959 | 0.903 | 0.904 | 0.889 | 0.705 | 1.22 | 0.759 | 0.987 | 0.861 | 0.83 | 0.906 | 0.975
SW 1573 | 0.438 | 0.738 | 0.453 | 0.624 | 0.456 | 0.984 | 1.05 | 1.01 | 0.979 | 0.819 | 0.925 | 1 | 1.03 | 1.07 | 0.934 | 0.933 | 1.02 | 0.915 | 0.883 | 0.907
